In US10227344B2, “CK2 inhibitors, compositions and methods thereof” (Polaris Pharmaceuticals, Inc., priority 2016, dated 2019):

How the values were obtained:
Format in all cases: cell-based
SKOV-3 = assay: Cancer cell panel, cell viability (resazurin): Ovarian, SKOV-3; conditions: SKOV-3 (Ovarian), 72 hours; labelled drug combined with Example 3
Experimental: (§1) Cells were plated in 96-well plates and treated for 72 hours with a serially diluted CK2 inhibitor or anti-cancer drug or their combination. The suspension cell lines were treated right after plating, while the adherent cells were allowed to attach overnight prior to the start of the treatment.
(§2) Cell viability was determined by adding resazurin to cell cultures and measuring fluorescence with a plate reader. Relative cell viability was calculated by dividing the cell viability signal from a test sample by that of a non-treated control. […] Bliss Independence and Highest Single Agent models were used to determine if there is synergy, additivity or antagonism between the CK2 inhibitor and an anti-cancer drug.

OVCAR-3 = assay: Cancer cell panel, cell viability (resazurin): Ovarian, OVCAR-3; conditions: OVCAR-3 (Ovarian), 72 hours; labelled drug combined with Example 3
Experimental: as §1, §2

A2780 = assay: Cancer cell panel, cell viability (resazurin): Ovarian, A2780; conditions: 72 hours, labelled drug combined with Example 3
Caov-3 = assay: Cancer cell panel, cell viability (resazurin): Ovarian, Caov-3; conditions: Caov-3 (Ovarian), 72 hours; labelled drug combined with Example 3
Mia-Paca-2 = assay: Cancer cell panel, cell viability (resazurin): Pancreatic, Mia-Paca-2; conditions: Mia-Paca-2 (Pancreatic), 72 hours; labelled drug combined with Example 3
Panc-1 = assay: Cancer cell panel, cell viability (resazurin): Pancreatic, Panc-1; conditions: Panc-1 (Pancreatic), 72 hours; labelled drug combined with Example 3
BxPC3 = assay: Cancer cell panel, cell viability (resazurin): Pancreatic, BxPC3; conditions: 72 hours, labelled drug combined with Example 3
Experimental: as §1, §2

HT29 = assay: Cancer cell panel, cell viability (resazurin): Colon, HT29; conditions: 72 hours, labelled drug combined with Example 3
Experimental: as §1, §2

Colo205 = assay: Cancer cell panel, cell viability (resazurin): Colon, Colo205; conditions: 72 hours, labelled drug combined with Example 3
LoVo = assay: Cancer cell panel, cell viability (resazurin): Colon, LoVo; conditions: 72 hours, labelled drug combined with Example 3
DLD-1 = assay: Cancer cell panel, cell viability (resazurin): Colon, DLD-1; conditions: DLD-1 (Colon), 72 hours; labelled drug combined with Example 3
H1299 = assay: Cancer cell panel, cell viability (resazurin): NSCLC, H1299; conditions: 72 hours, labelled drug combined with Example 3
A549 = assay: Cancer cell panel, cell viability (resazurin): NSCLC, A549; conditions: 72 hours, labelled drug combined with Example 3
Experimental: as §1, §2

H460 = assay: Cancer cell panel, cell viability (resazurin): NSCLC, H460; conditions: 72 hours, labelled drug combined with Example 3
Experimental: as §1, §2

H1975 = assay: Cancer cell panel, cell viability (resazurin): NSCLC, H1975; conditions: 72 hours, labelled drug combined with Example 3
Experimental: as §1, §2

H23 = assay: Cancer cell panel, cell viability (resazurin): NSCLC, H23; conditions: 72 hours, labelled drug combined with Example 3
H2122 = assay: Cancer cell panel, cell viability (resazurin): NSCLC, H2122; conditions: 72 hours, labelled drug combined with Example 3
SkBr-3 = assay: Cancer cell panel, cell viability (resazurin): Breast, SkBr-3; conditions: SkBr-3 (Breast), 72 hours; labelled drug combined with Example 3
MDA-MB-231 = assay: Cancer cell panel, cell viability (resazurin): Breast, MDA-MB-231; conditions: MDA-MB-231 (Breast), 72 hours; labelled drug combined with Example 3
MDA-MB-157 = assay: Cancer cell panel, cell viability (resazurin): Breast, MDA-MB-157; conditions: MDA-MB-157 (Breast), 72 hours; labelled drug combined with Example 3
Experimental: as §1, §2

BT-20 = assay: Cancer cell panel, cell viability (resazurin): Breast, BT-20; conditions: BT-20 (Breast), 72 hours; labelled drug combined with Example 3
ZR-75-1 = assay: Cancer cell panel, cell viability (resazurin): Breast, ZR-75-1; conditions: ZR-75-1 (Breast), 72 hours; labelled drug combined with Example 3
T47D = assay: Cancer cell panel, cell viability (resazurin): Breast, T47D; conditions: 72 hours, labelled drug combined with Example 3
MCF7 = assay: Cancer cell panel, cell viability (resazurin): Breast, MCF7; conditions: 72 hours, labelled drug combined with Example 3
Experimental: as §1, §2

ACHN = assay: Cancer cell panel, cell viability (resazurin): Renal, ACHN; conditions: 72 hours, labelled drug combined with Example 3
Caki-1 = assay: Cancer cell panel, cell viability (resazurin): Renal, Caki-1; conditions: Caki-1 (Renal), 72 hours; labelled drug combined with Example 3
A375 = assay: Cancer cell panel, cell viability (resazurin): Melanoma, A375; conditions: 72 hours, labelled drug combined with Example 3
SK-MEL-3 = assay: Cancer cell panel, cell viability (resazurin): Melanoma, SK-MEL-3; conditions: SK-MEL-3 (Melanoma), 72 hours; labelled drug combined with Example 3
SK-MEL-24 = assay: Cancer cell panel, cell viability (resazurin): Melanoma, SK-MEL-24; conditions: SK-MEL-24 (Melanoma), 72 hours; labelled drug combined with Example 3
WM-115 = assay: Cancer cell panel, cell viability (resazurin): Melanoma, WM-115; conditions: WM-115 (Melanoma), 72 hours; labelled drug combined with Example 3
U266 = assay: Cancer cell panel, cell viability (resazurin): multiple myeloma, U266; conditions: 72 hours, labelled drug combined with Example 3
Experimental: as §1, §2

RPMI8226 = assay: Cancer cell panel, cell viability (resazurin): multiple myeloma, RPMI8226; conditions: 72 hours, labelled drug combined with Example 3
Ramos = assay: Cancer cell panel, cell viability (resazurin): Burkitt's Lymphoma, Ramos; conditions: 72 hours, labelled drug combined with Example 3
Raji = assay: Cancer cell panel, cell viability (resazurin): Burkitt's Lymphoma, Raji; conditions: 72 hours, labelled drug combined with Example 3
Experimental: as §1, §2

K562 = assay: Cancer cell panel, cell viability (resazurin): Leukemia, K562; conditions: 72 hours, labelled drug combined with Example 3
HL60 = assay: Cancer cell panel, cell viability (resazurin): Leukemia, HL60; conditions: 72 hours, labelled drug combined with Example 3
EOL-1 = assay: Cancer cell panel, cell viability (resazurin): Leukemia, EOL-1; conditions: EOL-1 (Leukemia), 72 hours; labelled drug combined with Example 3
MOLT4 = assay: Cancer cell panel, cell viability (resazurin): Leukemia, MOLT4; conditions: 72 hours, labelled drug combined with Example 3
Experimental: as §1, §2

CCN(CC)CCNC(=O)c1c(C)[nH]c(/C=C2\C(=O)Nc3ccc(F)cc32)c1C [Sunitinib, sunitinib]
synergy, additivity or antagonism of the combination of Example 3 with the anti-cancer drug (SKOV-3): + (Additive relative to each agent alone (CI = 0.9-1 by Bliss Independence Model and <0.9 by Highest Single Agent Model)) | synergy, additivity or antagonism of the combination of Example 3 with the anti-cancer drug (OVCAR-3): − − (Antagonistic relative to each agent alone (CI = 1.2-1.49 by Highest Single Agent Model)) | synergy, additivity or antagonism of the combination of Example 3 with the anti-cancer drug (A2780): + + + (Synergy relative to each agent alone (CI = 0.4-0.74 by Bliss Independence Model)) | synergy, additivity or antagonism of the combination of Example 3 with the anti-cancer drug (Caov-3): + (Additive relative to each agent alone (CI = 0.9-1 by Bliss Independence Model and <0.9 by Highest Single Agent Model)) | synergy, additivity or antagonism of the combination of Example 3 with the anti-cancer drug (Mia-Paca-2): + + (Slight synergy relative to each agent alone (CI = 0.75-0.9 by Bliss Independence Model)) | synergy, additivity or antagonism of the combination of Example 3 with the anti-cancer drug (Panc-1): + + (Slight synergy relative to each agent alone (CI = 0.75-0.9 by Bliss Independence Model)) | synergy, additivity or antagonism of the combination of Example 3 with the anti-cancer drug (BxPC3): + + + (Synergy relative to each agent alone (CI = 0.4-0.74 by Bliss Independence Model)) | synergy, additivity or antagonism of the combination of Example 3 with the anti-cancer drug (HT29): + (Additive relative to each agent alone (CI = 0.9-1 by Bliss Independence Model and <0.9 by Highest Single Agent Model)) | synergy, additivity or antagonism of the combination of Example 3 with the anti-cancer drug (Colo205): + + + + (Strong synergy relative to each agent alone (CI < 0.4 by Bliss Independence Model)) | synergy, additivity or antagonism of the combination of Example 3 with the anti-cancer drug (LoVo): + (Additive relative to each agent alone (CI = 0.9-1 by Bliss Independence Model and <0.9 by Highest Single Agent Model)) | synergy, additivity or antagonism of the combination of Example 3 with the anti-cancer drug (DLD-1): + + (Slight synergy relative to each agent alone (CI = 0.75-0.9 by Bliss Independence Model)) | synergy, additivity or antagonism of the combination of Example 3 with the anti-cancer drug (H1299): + (Additive relative to each agent alone (CI = 0.9-1 by Bliss Independence Model and <0.9 by Highest Single Agent Model)) | synergy, additivity or antagonism of the combination of Example 3 with the anti-cancer drug (A549): + + + (Synergy relative to each agent alone (CI = 0.4-0.74 by Bliss Independence Model)) | synergy, additivity or antagonism of the combination of Example 3 with the anti-cancer drug (H460): + + (Slight synergy relative to each agent alone (CI = 0.75-0.9 by Bliss Independence Model)) | synergy, additivity or antagonism of the combination of Example 3 with the anti-cancer drug (H1975): + + (Slight synergy relative to each agent alone (CI = 0.75-0.9 by Bliss Independence Model)) | synergy, additivity or antagonism of the combination of Example 3 with the anti-cancer drug (H23): + + + (Synergy relative to each agent alone (CI = 0.4-0.74 by Bliss Independence Model)) | synergy, additivity or antagonism of the combination of Example 3 with the anti-cancer drug (H2122): + + (Slight synergy relative to each agent alone (CI = 0.75-0.9 by Bliss Independence Model)) | synergy, additivity or antagonism of the combination of Example 3 with the anti-cancer drug (SkBr-3): + + (Slight synergy relative to each agent alone (CI = 0.75-0.9 by Bliss Independence Model)) | synergy, additivity or antagonism of the combination of Example 3 with the anti-cancer drug (MDA-MB-231): + + (Slight synergy relative to each agent alone (CI = 0.75-0.9 by Bliss Independence Model)) | synergy, additivity or antagonism of the combination of Example 3 with the anti-cancer drug (MDA-MB-157): + + + (Synergy relative to each agent alone (CI = 0.4-0.74 by Bliss Independence Model)) | synergy, additivity or antagonism of the combination of Example 3 with the anti-cancer drug (BT-20): + + (Slight synergy relative to each agent alone (CI = 0.75-0.9 by Bliss Independence Model)) | synergy, additivity or antagonism of the combination of Example 3 with the anti-cancer drug (ZR-75-1): + + (Slight synergy relative to each agent alone (CI = 0.75-0.9 by Bliss Independence Model)) | synergy, additivity or antagonism of the combination of Example 3 with the anti-cancer drug (T47D): + (Additive relative to each agent alone (CI = 0.9-1 by Bliss Independence Model and <0.9 by Highest Single Agent Model)) | synergy, additivity or antagonism of the combination of Example 3 with the anti-cancer drug (MCF7): + (Additive relative to each agent alone (CI = 0.9-1 by Bliss Independence Model and <0.9 by Highest Single Agent Model)) | synergy, additivity or antagonism of the combination of Example 3 with the anti-cancer drug (ACHN): + (Additive relative to each agent alone (CI = 0.9-1 by Bliss Independence Model and <0.9 by Highest Single Agent Model)) | synergy, additivity or antagonism of the combination of Example 3 with the anti-cancer drug (Caki-1): + (Additive relative to each agent alone (CI = 0.9-1 by Bliss Independence Model and <0.9 by Highest Single Agent Model)) | synergy, additivity or antagonism of the combination of Example 3 with the anti-cancer drug (A375): + + (Slight synergy relative to each agent alone (CI = 0.75-0.9 by Bliss Independence Model)) | synergy, additivity or antagonism of the combination of Example 3 with the anti-cancer drug (SK-MEL-3): + (Additive relative to each agent alone (CI = 0.9-1 by Bliss Independence Model and <0.9 by Highest Single Agent Model)) | synergy, additivity or antagonism of the combination of Example 3 with the anti-cancer drug (SK-MEL-24): + + + (Synergy relative to each agent alone (CI = 0.4-0.74 by Bliss Independence Model)) | synergy, additivity or antagonism of the combination of Example 3 with the anti-cancer drug (WM-115): + + (Slight synergy relative to each agent alone (CI = 0.75-0.9 by Bliss Independence Model)) | synergy, additivity or antagonism of the combination of Example 3 with the anti-cancer drug (U266): + (Additive relative to each agent alone (CI = 0.9-1 by Bliss Independence Model and <0.9 by Highest Single Agent Model)) | synergy, additivity or antagonism of the combination of Example 3 with the anti-cancer drug (RPMI8226): + + + + (Strong synergy relative to each agent alone (CI < 0.4 by Bliss Independence Model)) | synergy, additivity or antagonism of the combination of Example 3 with the anti-cancer drug (Ramos): + + (Slight synergy relative to each agent alone (CI = 0.75-0.9 by Bliss Independence Model)) | synergy, additivity or antagonism of the combination of Example 3 with the anti-cancer drug (Raji): + + (Slight synergy relative to each agent alone (CI = 0.75-0.9 by Bliss Independence Model)) | synergy, additivity or antagonism of the combination of Example 3 with the anti-cancer drug (K562): + + + (Synergy relative to each agent alone (CI = 0.4-0.74 by Bliss Independence Model)) | synergy, additivity or antagonism of the combination of Example 3 with the anti-cancer drug (HL60): + + (Slight synergy relative to each agent alone (CI = 0.75-0.9 by Bliss Independence Model)) | synergy, additivity or antagonism of the combination of Example 3 with the anti-cancer drug (EOL-1): + + (Slight synergy relative to each agent alone (CI = 0.75-0.9 by Bliss Independence Model)) | synergy, additivity or antagonism of the combination of Example 3 with the anti-cancer drug (MOLT4): + (Additive relative to each agent alone (CI = 0.9-1 by Bliss Independence Model and <0.9 by Highest Single Agent Model))
